Reference: US11236047B2 (ASTEX THERAPEUTICS LIMITED, priority 2017, dated 2022)

tested on: SJSA-1 cells; test: Protocol B: SJSA-1 CellTiter-Glo luminescent cell viability assay; conditions: Homo sapiens, SJSA-1, read-out: SJSA1 IC50 (μM) (Protocol B), SJSA-1, Protocol B

Compound	IC50 [µM]
CC(O)(c1cc(F)c2c(c1)C(=O)N(Cc1ncc(Cl)cn1)[C@@]2(OCC1(O)CC1)c1ccc(Cl)cc1)C1CCS(=O)(=O)CC1 (single isomer, unassigned) [Example 397]	2.5
CO[C@]1(c2ccc(Cl)cc2)c2c(F)cc(C(C)(O)c3cnn(C4CN(C(C)=O)C4)c3)cc2C(=O)N1Cc1ccc(Cl)cn1 (stereo partly drawn) [Example 182, (3R)-6-{1-[1-(1-Acetylazetidin-3-yl)-1H-pyrazol-4-yl]-1-hydroxyethyl}-3-(4-chlorophenyl)-2-[(5-chloropyridin-2-yl)methyl]-4-fluoro-3-methoxy-2,3-dihydro-1H-isoindol-1-one]	0.88
CO[C@]1(c2ccc(Cl)cc2)c2c(F)cc(C(C)(O)c3cnn(CCN(C)C)c3)cc2C(=O)N1Cc1ccc(Cl)cn1 (stereo partly drawn) [Example 191, (3R)-3-(4-Chlorophenyl)-2-[(5-chloropyridin-2-yl)methyl]-6-(1-{1-[2-(dimethylamino)ethyl]-1H-pyrazol-4-yl}-1-hydroxyethyl)-4-fluoro-3-methoxy-2,3-dihydro-1H-isoindol-1-one]	2.5
Cn1cc(C(C)(O)c2cc(F)c3c(c2)C(=O)N(Cc2ccc(F)cn2)[C@@]3(OCC2(C(N)=O)CC2)c2ccc(Cl)cc2)cn1 (stereo partly drawn) [Example 209, 1-({[(1R)-1-(4-chlorophenyl)-7-fluoro-2-[(5-fluoropyridin-2-yl)methyl]-5-[1-hydroxy-1-(1-methyl-1H-pyrazol-4-yl)ethyl]-3-oxo-2,3-dihydro-1H-isoindol-1-yl]oxy}methyl)cyclopropane-1-carboxamide]	0.45

same assay, conditions: read-out: SJSA1 IC50 (μM) (Protocol B); SJSA-1, Protocol B

Compound	IC50 [µM]
CC(O)(c1cc(F)c2c(c1)C(=O)N(Cc1ncc(Cl)cn1)[C@@]2(OCC1(C(N)=O)CC1)c1ccc(Cl)cc1)C1CCC1 (single isomer, unassigned) [Example 403]	1.2
CC(O)(c1cc(F)c2c(c1)C(=O)N(Cc1ncc(Cl)cn1)[C@@]2(OCC1(C(N)=O)CC1)c1ccc(Cl)cc1)C1CCC1 (single isomer, unassigned) [Example 404]	0.095
CC(O)(c1cc(F)c2c(c1)C(=O)N(Cc1ccc(C#N)cn1)[C@@]2(OCCO)c1ccc(Cl)cc1)C1CCC1 (single isomer, unassigned) [Example 405]	0.63
CC(O)(c1cc(F)c2c(c1)C(=O)N(Cc1ccc(C#N)cn1)[C@@]2(OCCO)c1ccc(Cl)cc1)C1CCC1 (single isomer, unassigned) [Example 406]	3.9
CO[C@]1(c2ccc(Cl)cc2)c2c(F)cc(C(C)(O)c3cn(C)c(C)n3)cc2C(=O)N1Cc1ccc(Cl)cn1 (stereo partly drawn) [Example 161, (3R)-3-(4-Chlorophenyl)-2-[(5-chloropyridin-2-yl)methyl]-6-[1-(1,2-dimethyl-1H-imidazol-4-yl)-1-hydroxyethyl]-4-fluoro-3-methoxy-2,3-dihydro-1H-isoindol-1-one]	4.3
CO[C@]1(c2ccc(Cl)cc2)c2c(F)cc(C(C)(O)c3cnn(CCN(C)C)c3)cc2C(=O)N1Cc1ccc(Cl)cn1 (stereo partly drawn) [Example 192, (3R)-3-(4-Chlorophenyl)-2-[(5-chloropyridin-2-yl)methyl]-6-(1-{1-[2-(dimethylamino)ethyl]-1H-pyrazol-4-yl}-1-hydroxyethyl)-4-fluoro-3-methoxy-2,3-dihydro-1H-isoindol-1-one]	1.4

same assay, conditions: read-out: SJSA1 IC50; Protocol B, SJSA-1

IC50 [µM]	Compound
4.9	CCC(O)(c1cc(F)c2c(c1)C(=O)N(Cc1ncc(C#N)cn1)[C@@]2(OC[C@H]1C[C@H](O)C1)c1ccc(Cl)cc1)c1cn(C)cn1 (single isomer, unassigned) [Example 484]
0.76	CCC(O)(CN1CCNCC1)c1cc(F)c2c(c1)C(=O)N(Cc1ncc(Cl)cn1)[C@@]2(OCC1(C#N)CC1)c1ccc(Cl)cc1 (single isomer, unassigned) [Example 537]

Compound	IC50 [µM]
CCC(O)(CN1CCN(C)CC1)c1cc(F)c2c(c1)C(=O)N(Cc1ncc(Cl)cn1)[C@@]2(OCCO)c1ccc(Cl)cc1 (single isomer, unassigned) [Example 532]	0.14
